Test results from patent US9624217B2, “Dihydropyrrolopyridine inhibitors of ROR-gamma” (Vitae Pharmaceuticals, Inc., priority 2014, dated 2017).

These molecules were tested against recombinant RORγ Ligand Binding Domain (LBD) (Homo sapiens (Human), UniProt P51449) (assay: Radio-Ligand RORγ Binding Assay (Assay 1)). Conditions: SPA competition with 25-hydroxy [26,27-3H]-cholesterol, cell-free; read-out: RORγ Binding Ki Range.
Protocol: Radio-Ligand RORγ Binding Assay (Assay 1)
Compounds of the present invention were tested for ability to bind to RORγ in a cell-free competition assay with commercially available radio-ligand (RL), 25-hydroxy [26,27-^3H]-cholesterol (PerkinElmer, Cat. #NET674250UC), for a ligand binding site on a recombinant RORγ Ligand Binding Domain (LBD) protein expressed as a 6×His-Glutathione-S-Transferase (GST) fusion. […] The plate was shaken at 700 rpm for 20 min and incubated for 10 min at rt, after which 40 μL of poly-Lys YSi SPA beads (PerkinElmer, Cat. #RPNQ0010) were added to achieve 50 μg of the beads per well. The plate was incubated on an orbital shaker for 20 min and then for 10 min without agitation at rt. SPA signal for tritium beta radiation was registered on PerkinElmer Microbeta plate reader. […] The percent inhibition vs. concentration data were fit into a four-parameter model, and IC50 values were calculated from the fit as the concentrations corresponding to the inflection points on the dose-response curves.

Chain of recombinant RORγ Ligand Binding Domain (LBD) (P51449 269-508): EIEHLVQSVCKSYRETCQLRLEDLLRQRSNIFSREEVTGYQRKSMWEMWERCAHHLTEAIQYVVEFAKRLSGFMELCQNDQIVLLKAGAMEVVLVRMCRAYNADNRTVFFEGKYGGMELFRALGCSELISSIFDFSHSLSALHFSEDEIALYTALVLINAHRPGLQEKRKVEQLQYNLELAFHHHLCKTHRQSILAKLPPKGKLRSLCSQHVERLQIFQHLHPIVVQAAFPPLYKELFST

Compound	Ki
CC(C)[C@@H]1c2ncc(C(=O)NCc3ccc(S(C)(=O)=O)cc3)cc2CN1Cc1ccc(Cl)cc1 [Compound 18]	> 1000 nM
CC(C)[C@H]1c2ncc(C(=O)NCc3ccc(S(C)(=O)=O)cc3)cc2CN1Cc1ccc(Cl)cn1 [Compound 23]	100 to 1000 nM
CC(C)[C@H]1c2ncc(C(=O)NCc3ccc(S(C)(=O)=O)cc3)cc2CN1Cc1ccc(C(F)(F)F)cn1 [Compound 36]	100 to 1000 nM
CC(C)[C@@H]1c2ncc(C(=O)NCc3ccc(S(C)(=O)=O)cc3)cc2CN1Cc1ccc(C(F)(F)F)cn1 [Compound 37]	> 1000 nM
COC(=O)c1ccc(CNC(=O)c2cnc3c(c2)CN(Cc2ccc(C(F)(F)F)cc2)[C@H]3C(C)C)cc1 [Compound 65, Methyl (S)-4-((7-isopropyl-6-(4-(trifluoromethyl)benzyl)-6,7-dihydro-5H-pyrrolo[3,4-b]pyridine-3-carboxamido)methyl)benzoate]	100 to 1000 nM
CC(C)[C@H]1c2ncc(C(=O)NCC3CN(C(=O)OC(C)(C)C)C3)cc2CN1Cc1ccc(C(F)(F)F)cc1 [Compound 68]	> 1000 nM
CC(C)[C@H]1c2ncc(C(=O)NCc3cn4cccnc4n3)cc2CN1Cc1ccc(C(F)(F)F)cc1 [Compound 69]	> 1000 nM
CC(C)[C@H]1c2ncc(C(=O)NCC(O)c3ccc(C(F)(F)F)cc3)cc2CN1Cc1ccc(C(F)(F)F)cc1 (stereo partly drawn) [Compound 70]	> 1000 nM
CC(C)[C@H]1c2ncc(C(=O)N[C@@H](CCO)c3ccc(Cl)cc3)cc2CN1Cc1ccc(C(F)(F)F)cc1 [Compound 71]	100 to 1000 nM
COC(=O)[C@H]1CC[C@H](CNC(=O)c2cnc3c(c2)CN(Cc2ccc(C(F)(F)F)cc2)[C@H]3C(C)C)CC1 [Compound 75]	> 1000 nM
CC(C)[C@H]1c2ncc(C(=O)NCCN3CCOCC3)cc2CN1Cc1ccc(C(F)(F)F)cc1 [Compound 77]	> 1000 nM
CC(C)[C@H]1c2ncc(C(=O)NCc3ccccn3)cc2CN1Cc1ccc(C(F)(F)F)cc1 [Compound 78]	100 to 1000 nM
CC(C)[C@H]1c2ncc(C(=O)NCCCN3CCCC3=O)cc2CN1Cc1ccc(C(F)(F)F)cc1 [Compound 79]	> 1000 nM
CC(C)[C@H]1c2ncc(C(=O)NCc3cccnn3)cc2CN1Cc1ccc(C(F)(F)F)cc1 [Compound 84]	> 1000 nM
CCS(=O)(=O)CCNC(=O)c1cnc2c(c1)CN(Cc1ccc(C(F)(F)F)cc1)[C@H]2C(C)C [Compound 86]	> 1000 nM
CC(C)[C@H]1c2ncc(C(=O)NCC(c3cccnc3)N3CCOCC3)cc2CN1Cc1ccc(C(F)(F)F)cc1 (stereo partly drawn) [Compound 88]	> 1000 nM
CC(C)[C@H]1c2ncc(C(=O)NCC(c3ccncc3)N(C)C)cc2CN1Cc1ccc(C(F)(F)F)cc1 (stereo partly drawn) [Compound 92]	> 1000 nM

Compound	Ki
CC(C)[C@H]1c2ncc(C(=O)NCCc3ccccn3)cc2CN1Cc1ccc(C(F)(F)F)cc1 [Compound 97]	> 1000 nM
CC(C)[C@H]1c2ncc(C(=O)NCCN3CCN(C)CC3)cc2CN1Cc1ccc(C(F)(F)F)cc1 [Compound 99]	> 1000 nM
CC(C)[C@H]1c2ncc(C(=O)NCCc3ccnc(O)c3)cc2CN1Cc1ccc(C(F)(F)F)cc1 [Compound 101]	> 1000 nM
CCS(=O)(=O)N1CC(CCNC(=O)c2cnc3c(c2)CN(Cc2ccc(C(F)(F)F)cc2)[C@H]3C(C)C)C1 [Compound 102]	100 to 1000 nM
CCS(=O)(=O)N1CCC(CNC(=O)c2cnc3c(c2)CN(Cc2ccc(C(F)(F)F)cc2)[C@H]3C(C)C)C1 (stereo partly drawn) [Compound 106]	100 to 1000 nM
CNC(=O)[C@H]1CC[C@H](CNC(=O)c2cnc3c(c2)CN(Cc2ccc(C(F)(F)F)cc2)[C@H]3C(C)C)CC1 [Compound 108]	> 1000 nM
COC(=O)N1CCC(CNC(=O)c2cnc3c(c2)CN(Cc2ccc(C(F)(F)F)cc2)[C@H]3C(C)C)CC1 [Compound 110]	> 1000 nM
CC(O)C(=O)N1CCC(CNC(=O)c2cnc3c(c2)CN(Cc2ccc(C(F)(F)F)cc2)[C@H]3C(C)C)CC1 (stereo partly drawn) [Compound 112]	> 1000 nM
CC(=O)N1CCC(CNC(=O)c2cnc3c(c2)CN(Cc2ccc(C(F)(F)F)cc2)[C@H]3C(C)C)CC1 [Compound 114]	> 1000 nM
CC(C)[C@H]1c2ncc(C(=O)NC3(c4cnccn4)CC3)cc2CN1Cc1ccc(C(F)(F)F)cc1 [Compound 120]	> 1000 nM
CC(C)[C@H]1c2ncc(C(=O)NCCC3C(=O)Nc4ccc(Cl)cc43)cc2CN1Cc1ccc(C(F)(F)F)cc1 (stereo partly drawn) [Compound 121]	> 1000 nM
CC(C)NC(=O)c1cnc2c(c1)CN(Cc1ccc(C(F)(F)F)cc1)[C@H]2C(C)C [Compound 122]	> 1000 nM
CC(C)[C@H]1c2ncc(C(=O)NCC(F)F)cc2CN1Cc1ccc(C(F)(F)F)cc1 [Compound 124]	> 1000 nM
CC(C)[C@H]1c2ncc(C(=O)N[C@H]3c4ccccc4C[C@H]3O)cc2CN1Cc1ccc(C(F)(F)F)cc1 [Compound 125]	> 1000 nM
COC(=O)C(Cc1ccc(F)cc1)NC(=O)c1cnc2c(c1)CN(Cc1ccc(C(F)(F)F)cc1)[C@H]2C(C)C (stereo partly drawn) [Compound 126]	> 1000 nM
CC(C)[C@H]1c2ncc(C(=O)N[C@H]3c4ccccc4C[C@H]3O)cc2CN1Cc1ccc(C(F)(F)F)cc1 [Compound 130]	> 1000 nM

Further lines, results first:

Ki	Compound
> 1000 nM	CC(C)[C@@H]1c2ncc(C(=O)NCc3ccc(S(C)(=O)=O)cc3)cc2CN1Cc1ccc(C#N)cc1 [Compound 19]
< 100 nM	CCS(=O)(=O)c1ccc(CNC(=O)c2cnc3c(c2)CN(C[C@H]2CC[C@H](C(=O)OC)CC2)[C@H]3C(C)C)cc1 [Compound 44]
< 100 nM	CCS(=O)(=O)c1ccc(CNC(=O)c2cnc3c(c2)C(=O)N(C[C@H]2CC[C@H](C(F)(F)F)CC2)[C@H]3C(C)C)nc1 [Compound 47]
> 1000 nM	CC(C)[C@H]1c2ncc(C(=O)NCC3CCS(=O)(=O)CC3)cc2CN1Cc1ccc(C(F)(F)F)cc1 [Compound 61]
> 1000 nM	CC(C)[C@H]1c2ncc(C(=O)NCCC3CCS(=O)(=O)CC3)cc2CN1Cc1ccc(C(F)(F)F)cc1 [Compound 62]
> 1000 nM	CC(C)[C@H]1c2ncc(C(=O)NCCC3CN(C(=O)OC(C)(C)C)C3)cc2CN1Cc1ccc(C(F)(F)F)cc1 [Compound 66]
> 1000 nM	CC(C)[C@H]1c2ncc(C(=O)NCC3CCN(C(=O)OC(C)(C)C)C3)cc2CN1Cc1ccc(C(F)(F)F)cc1 (stereo partly drawn) [Compound 74]
> 1000 nM	CC(C)[C@H]1c2ncc(C(=O)NCC3(c4ccc(Cl)cc4)CC3)cc2CN1Cc1ccc(C(F)(F)F)cc1 [Compound 80]
> 1000 nM	CC(C)[C@H]1c2ncc(C(=O)NCc3ccccc3CN3CCN(C)CC3)cc2CN1Cc1ccc(C(F)(F)F)cc1 [Compound 81]
> 1000 nM	CC(C)[C@H]1c2ncc(C(=O)NCc3ccn(C)n3)cc2CN1Cc1ccc(C(F)(F)F)cc1 [Compound 82]
100 to 1000 nM	CC(C)[C@H]1c2ncc(C(=O)NCc3ccnnc3)cc2CN1Cc1ccc(C(F)(F)F)cc1 [Compound 83]
> 1000 nM	CC(C)[C@H]1c2ncc(C(=O)NCC3COCCO3)cc2CN1Cc1ccc(C(F)(F)F)cc1 (stereo partly drawn) [Compound 85]
> 1000 nM	CC(C)[C@H]1c2ncc(C(=O)NC3(CO)Cc4ccccc4C3)cc2CN1Cc1ccc(C(F)(F)F)cc1 [Compound 87]
100 to 1000 nM	CC(C)[C@H]1c2ncc(C(=O)NCCC3CCOCC3)cc2CN1Cc1ccc(C(F)(F)F)cc1 [Compound 90]
> 1000 nM	CC(C)[C@H]1c2ncc(C(=O)NCC(c3ccc(C(F)(F)F)cc3)N3CCOCC3)cc2CN1Cc1ccc(C(F)(F)F)cc1 (stereo partly drawn) [Compound 93]
> 1000 nM	CC(C)[C@H]1c2ncc(C(=O)NCc3nnc4n3CCC4)cc2CN1Cc1ccc(C(F)(F)F)cc1 [Compound 94]
> 1000 nM	CC(C)[C@H]1c2ncc(C(=O)NCCCn3ccnc3)cc2CN1Cc1ccc(C(F)(F)F)cc1 [Compound 96]
> 1000 nM	CC(C)[C@H]1c2ncc(C(=O)NCc3ccccc3OCCN(C)C)cc2CN1Cc1ccc(C(F)(F)F)cc1 [Compound 98]
> 1000 nM	CC(C)[C@H]1c2ncc(C(=O)NCC3CCN(C)CC3)cc2CN1Cc1ccc(C(F)(F)F)cc1 [Compound 100]
100 to 1000 nM	CCS(=O)(=O)N1CC(CNC(=O)c2cnc3c(c2)CN(Cc2ccc(C(F)(F)F)cc2)[C@H]3C(C)C)C1 [Compound 104]
> 1000 nM	COC(=O)N1CC(CNC(=O)c2cnc3c(c2)CN(Cc2ccc(C(F)(F)F)cc2)[C@H]3C(C)C)C1 [Compound 105]
100 to 1000 nM	COC(=O)N1CCC(CNC(=O)c2cnc3c(c2)CN(Cc2ccc(C(F)(F)F)cc2)[C@H]3C(C)C)C1 (stereo partly drawn) [Compound 107]
100 to 1000 nM	CC(C)[C@H]1c2ncc(C(=O)NCC3CCN(C(=O)CO)CC3)cc2CN1Cc1ccc(C(F)(F)F)cc1 [Compound 113]
100 to 1000 nM	CC(C)[C@H]1c2ncc(C(=O)NCc3ccncc3)cc2CN1Cc1ccc(C(F)(F)F)cc1 [Compound 115]
100 to 1000 nM	CC(C)[C@H]1c2ncc(C(=O)NCc3cccc(S(C)(=O)=O)c3)cc2CN1Cc1ccc(C(F)(F)F)cc1 [Compound 116]
> 1000 nM	CC(C)[C@H]1c2ncc(C(=O)NCC(F)(F)F)cc2CN1Cc1ccc(C(F)(F)F)cc1 [Compound 117]
> 1000 nM	CC(C)[C@H]1c2ncc(C(=O)NCC3(O)CCC4(CC3)OCCO4)cc2CN1Cc1ccc(C(F)(F)F)cc1 [Compound 118]
> 1000 nM	CC(C)[C@H]1c2ncc(C(=O)N[C@H](C)c3ccc(Br)cc3)cc2CN1Cc1ccc(C(F)(F)F)cc1 [Compound 119]
100 to 1000 nM	CC(C)[C@H]1c2ncc(C(=O)NC(CO)c3ccc(Br)cc3)cc2CN1Cc1ccc(C(F)(F)F)cc1 (stereo partly drawn) [Compound 123]
100 to 1000 nM	CC(C)[C@H]1c2ncc(C(=O)NC[C@H]3CC[C@H](C#N)CC3)cc2CN1Cc1ccc(C(F)(F)F)cc1 [Compound 129]
